Reference: patent publication US20210008161A1, “METHODS AND COMPOSITIONS FOR IMPROVED HOMOLOGY DIRECTED REPAIR” (CRISPR THERAPEUTICS AG, priority 2019, published 2021)

Assays:
HEK293 T cells = assay: BFP to GFP fluorescent reporter assay of HDR efficiency (AAVS1 locus); assay type: cell-based, human; settings: different concentrations/doses, FIG. 1B, 1C
Experimental: An in vitro assay was conducted to determine the ability of various inhibitors and enhancers to improve the efficiency of HDR repair in HEK293 T cells. Specifically, a fluorescent reporter-based screening approach was developed to identify molecules that enhance gene-editing by HDR. A reporter system was generated in HEK293 T cells comprising a genomic AAVS1 locus that encoded either a blue fluorescent protein (BFP) or a green fluorescent protein (GFP) within the AAVS1 locus. A gene encoding BFP can be converted to a gene encoding GFP by substitution of cytosine at position 199 to uridine (e.g., a C to U transition at position 199). By introducing a DSB within the BFP gene using a CRISPR/Cas9 gene-editing system, a homology donor DNA encoding the nucleotide substitution can be used to edit the BFP gene to a GFP gene by HDR repair. Thus, a gene edit that induces a C to U transition at position 199 results in a change in cellular fluorescence. A change in the fluorescence of the cell measured by flow cytometry can be used to quantify efficiency of HDR repair. Additionally, the reverse gene edit can be performed for an AAVS1 locus encoding a GFP gene, wherein a GFP can be converted to BFP by substitution of uridine at position 199 to cytosine.
To create the reporter system, an AAV-based homology donor DNA encoding either BFP or GFP was created. The AAV-BFP or AAV-GFP donor was flanked by homology arms that were 1000 base pairs in length and expression of BFP or GFP was driven by the MND promoter (e.g., a synthetic promoter that contains the U3 region of a modified Moloney murine leukemia virus long term terminal repeat with myeloproliferative sarcoma virus enhancer and deleted negative control region, SEQ ID NO: 58). The viral DNA was packaged into capsids of adeno-associated virus serotype 6 (AAV6) vector. Either the BFP or GFP donor was introduced using the AAV6 vector into the AAVS1 locus in HEK293 T cells by homologous recombination using CRISPR-Cas9 as follows: purified Cas9 protein was complexed with two different single gRNAs (sgRNAs) targeting the AAVS1 locus at SEQ ID NO: 3 (spacer sequence identified by SEQ ID NO: 4; gRNA obtained from Maxcyte) or SEQ ID NO: 5 (spacer sequence identified by SEQ ID NO: 6; gRNA obtained from Thermo Fisher). Cas9 protein used in the Exemplary section provided herein refers to Cas9 polypeptide derived from S. pyogenes (SpCas9), unless indicated otherwise.
The Cas9-sgRNA complex was electroporated into the HEK293 T cells using the Lonza Nucleofector program CM-130. Approximately, 2 hours after electroporation, the cells were infected with various viral doses of AAV6 encoding a BFP (SEQ ID NO: 44) or GFP homology donor (SEQ ID NO: 47). One week later, cells were analyzed by flow cytometry to verify integration and expression of BFP or GFP in the AAVS1 locus. HEK293 T cells expressing BFP or GFP were sorted into single cells in 96-well plates. After ˜2 weeks of growth, DNA extracted from individual cells was analyzed for precise integration of the respective BFP or GFP gene into the AAVS1 locus by long-range PCR. This PCR analysis allowed for determination of whether the BFP/GFP gene was integrated in one or both alleles of the AAVS1 locus.
To introduce a gene edit that converts BFP to GFP, cells were electroporated with ribonucleoprotein (RNP) comprised of Cas9 and sgRNA that targets the BFP gene encoded in the AAVS1 locus. The sgRNA targeted a sequence in the BFP gene identified by SEQ ID NO: 7 (sgRNA spacer sequence identified by SEQ ID NO: 8). The sgRNA were prepared using a standard sgRNA cassette specific to SpCas9, as indicated by SEQ ID NO: 2 (wherein a, c, g, u represent 2′ O-methyl phosphorothioate nucleotides; s represents phosphorothioate nucleotides; and A, C, G, U, N represent canonical RNA nucleotides). The gRNAs used in the Exemplary section provided herein were sgRNAs prepared with the SpCas9 sgRNA cassette unless indicated otherwise. […]

CD34-expressing LT-HSPCs = assay: HDR insertion of AAV-delivered GFP donor into HBB locus (GFP fluorescence); assay type: cell-based, human; settings: HBB locus in LT-HSPCs; any dose tested; data not shown
Experimental: Frozen CD34-expressing LT-HSPCs derived from plerixafor (i.e., Mozibil®)+GCSF-dual mobilized peripheral blood obtained from healthy human donors were purchased from a commercial vendor. LT-HSPCs were maintained in culture media comprised of the reagents shown in Table 4 and were incubated at 37° C., 5% carbon dioxide, 4% oxygen. […] 2×10^5 cells were edited with 3 μg Cas9 and 3 μg gRNA. The target gene sequence (including target sequence with PAM), R02 spacer sequence, and R02 sgRNA sequence are identified in Table 3.
The cells were transfected with a dsDNA homology donor encoding GFP under a SFFV promoter (SEQ ID NO: 60) that was delivered by AAV (SEQ ID NO: 56). […] The HDR efficiency was determined by measuring the level of GFP fluorescence in the cells following electroporation. To determine the effect of 53BP1 inhibition on HDR efficiency, the 53BP1 inhibitor i53 was introduced as an mRNA-encoded protein to the cells during electroporation with Cas9/gRNA RNP and AAV DNA that serves as a donor for homology directed repair.
The effect of 53BP1 inhibition on HDR efficiency was compared to other mRNA-encoded proteins that inhibit the NHEJ pathway. These included the proteins CYREN1 and CYREN2 that inhibit Ku70/80, a heterodimer that binds DNA blunt ends to prevent processing of 3′ single-stranded DNA tails necessary for HDR repair. Cells were electroporated with RNP, an AAV-GFP homology donor and mRNA encoding either i53 (mRNA ORF shown in SEQ ID NO: 69), CYREN1, or CYREN2.
The effect of treatment with i53 and Nu7441 was compared for improving efficiency of HDR repair of the HBB locus. Cells were treated with different doses of Nu7441 or with mRNA encoding i53 (ORF shown by SEQ ID NO: 69).

| Structure (SMILES) | HDR efficiency (HEK293 T cells) | HDR efficiency (CD34-expressing LT-HSPCs) |
| --- | --- | --- |
| CCCCCCNC(=O)Nc1ccc(S(=O)(=O)Nc2ccc(CCNC[C@H](O)COc3ccc(O)cc3)cc2)cc1 [L755,507] | no improvement | – |
| C[C@]1(c2nc3c(C(N)=O)cccc3[nH]2)CCCN1 [Veliparib] | no improvement | – |
| Cl.O=c1[nH]c([C@@H]2CCCN2)nc2c1oc1ccc(Cl)cc12 [XL 413, reference compound] | – | no improvement |
